Laboratory results reported in patent US8258114B2, “Modulation of glucose-6-phosphatase translocase expression” (Isis Pharmaceuticals, Inc., priority 2004, dated 2012).
Oligonucleotides are written 5' to 3', each unit as a sugar letter and its base; * is a phosphorothioate linkage, no mark a phosphodiester; rarer units and linkages stand in square brackets, end groups in braces. Plain capitals give the bases only. e = 2'-O-(2-methoxyethyl) (MOE); [5mC] = 5-methylcytosine; d = 2'-deoxy (DNA)

Each sequence was assayed on mouse glucose-6-phosphatase translocase mRNA (assay: Antisense inhibition of mouse glucose-6-phosphatase translocase mRNA in primary mouse hepatocytes, 50 nM (Table 5)). Details: 50 nM oligonucleotide, mRNA by real-time PCR, normalized with RIBOGREEN.
Assay type: cell-based
Experimental: Primary mouse hepatocytes were prepared from CD-1 mice purchased from Charles River Labs. Primary mouse hepatocytes were routinely cultured in Hepatocyte Attachment Media supplemented with 10% fetal bovine serum (Invitrogen Life Technologies, Carlsbad, Calif.), 250 nM dexamethasone, and 10 nM bovine insulin (Sigma-Aldrich, St. Louis, Mo.). Cells were seeded into 96-well plates (Falcon-Primaria #353872, BD Biosciences, Bedford, Mass.) at a density of approximately 4,000-6,000 cells/well for use in oligomeric compound transfection experiments.
Quantitation of glucose 6-phosphatase translocase mRNA levels was accomplished by real-time quantitative PCR using the ABI PRISM™ 7600, 7700, or 7900 Sequence Detection System (PE-Applied Biosystems, Foster City, Calif.) according to manufacturer's instructions.
Prior to quantitative PCR analysis, primer-probe sets specific to the target gene being measured were evaluated for their ability to be “multiplexed” with a GAPDH amplification reaction. After isolation the RNA is subjected to sequential reverse transcriptase (RT) reaction and real-time PCR, both of which are performed in the same well. RT and PCR reagents were obtained from Invitrogen Life Technologies (Carlsbad, Calif.). […] The RT reaction was carried out by incubation for 30 minutes at 48° C. Following a 10 minute incubation at 95° C. to activate the PLATINUM® Taq, 40 cycles of a two-step PCR protocol were carried out: 95° C. for 15 seconds (denaturation) followed by 60° C. for 1.5 minutes (annealing/extension).
Gene target quantities obtained by RT, real-time PCR were normalized using either the expression level of GAPDH, a gene whose expression is constant, or by quantifying total RNA using RiboGreen™ (Molecular Probes, Inc. Eugene, Oreg.). GAPDH expression was quantified by RT, real-time PCR, by being run simultaneously with the target, multiplexing, or separately. Total RNA was quantified using RiboGreen™ RNA quantification reagent (Molecular Probes, Inc. Eugene, Oreg.).
A series of oligomeric compounds was designed to target different regions of mouse glucose-6-phosphatase translocase, using published sequences cited in Table 1. All compounds in Table 5 are chimeric oligonucleotides (“gapmers”) 20 nucleotides in length, composed of a central “gap” region consisting of 10 2′-deoxynucleotides, which is flanked on both sides (5′ and 3′) by five-nucleotide “wings”. The wings are composed of 2′-O-(2-methoxyethyl) nucleotides, also known as 2′-MOE nucleotides. The internucleoside (backbone) linkages are phosphorothioate throughout the oligonucleotide. All cytidine residues are 5-methylcytidines. The compounds were analyzed for their effect on gene target mRNA levels by quantitative real-time PCR as described in other examples herein, using the following primer-probe set designed to hybridize to mouse glucose-6-phosphatase translocase: • forward primer: […] (SEQ ID NO: 66) • reverse primer: CCATCCCAGCCATCATGAG (SEQ ID NO: 67) and the PCR probe was: FAM-[…]-TAMRA (SEQ ID NO: 68) where FAM is the fluorescent reporter dye and TAMRA is the quencher dye. Mouse target gene quantities were normalized by quantifying total RNA using RIBOGREEN™.
Data are from experiments in which primary mouse hepatocytes were treated with 50 nM of the antisense oligonucleotides of the present invention. A reduction in expression is expressed as percent inhibition in Table 5. If present, “N.D.” indicates “not determined”. The target regions to which these oligomeric compounds are inhibitory are herein referred to as “validated target segments.”

Row | Sequence | % Inhib [%]
1 | AAACGTAAAGGTTCTGTGTT (eA*eA*eA*e[5mC]*eG*dT*dA*dA*dA*dG*dG*dT*dT*d[5mC]*dT*eG*eT*eG*eT*eT; antisense) [ISIS 148990] | 16
2 | AACCAGGATCCAGATCTTGG (eA*eA*e[5mC]*e[5mC]*eA*dG*dG*dA*dT*d[5mC]*d[5mC]*dA*dG*dA*dT*e[5mC]*eT*eT*eG*eG; antisense) [ISIS 148976] | 48
3 | AAGGCCTCCGACCTCGAGGG (eA*eA*eG*eG*e[5mC]*d[5mC]*dT*d[5mC]*d[5mC]*dG*dA*d[5mC]*d[5mC]*dT*d[5mC]*eG*eA*eG*eG*eG; antisense) [ISIS 148967] | 34
4 | AAGTCGGTTTGCCCTCTATA (eA*eA*eG*eT*e[5mC]*dG*dG*dT*dT*dT*dG*d[5mC]*d[5mC]*d[5mC]*dT*e[5mC]*eT*eA*eT*eA; antisense) [ISIS 149007] | 64
5 | AATGCTTCCTACAAGGCCTC (eA*eA*eT*eG*e[5mC]*dT*dT*d[5mC]*d[5mC]*dT*dA*d[5mC]*dA*dA*dG*eG*e[5mC]*e[5mC]*eT*e[5mC]; antisense) [ISIS 148968] | 26
6 | ACAAAGGAGAAGGTTTTGCG (eA*e[5mC]*eA*eA*eA*dG*dG*dA*dG*dA*dA*dG*dG*dT*dT*eT*eT*eG*e[5mC]*eG; antisense) [ISIS 148943] | 47
7 | ACAACTGTGCTGGCTCCACA (eA*e[5mC]*eA*eA*e[5mC]*dT*dG*dT*dG*d[5mC]*dT*dG*dG*d[5mC]*dT*e[5mC]*e[5mC]*eA*e[5mC]*eA; antisense) [ISIS 148982] | 69
8 | ACAGAGACAGCCCTGCCTTC (eA*e[5mC]*eA*eG*eA*dG*dA*d[5mC]*dA*dG*d[5mC]*d[5mC]*d[5mC]*dT*dG*e[5mC]*e[5mC]*eT*eT*e[5mC]; antisense) [ISIS 148970] | 78
9 | ACAGGGCCAGTGTGCTGCGC (eA*e[5mC]*eA*eG*eG*dG*d[5mC]*d[5mC]*dA*dG*dT*dG*dT*dG*d[5mC]*eT*eG*e[5mC]*eG*e[5mC]; antisense) [ISIS 148958] | 50
10 | ACCCACAAGGGCGGACTGCC (eA*e[5mC]*e[5mC]*e[5mC]*eA*d[5mC]*dA*dA*dG*dG*dG*d[5mC]*dG*dG*dA*e[5mC]*eT*eG*e[5mC]*e[5mC]; antisense) [ISIS 148964] | 0
11 | AGACCACAAGGTAGCCAGTG (eA*eG*eA*e[5mC]*e[5mC]*dA*d[5mC]*dA*dA*dG*dG*dT*dA*dG*d[5mC]*e[5mC]*eA*eG*eT*eG; antisense) [ISIS 148961] | 36
12 | AGCCATCATGAGTAGCAATA (eA*eG*e[5mC]*e[5mC]*eA*dT*d[5mC]*dA*dT*dG*dA*dG*dT*dA*dG*e[5mC]*eA*eA*eT*eA; antisense) [ISIS 148973] | 35
13 | AGCCCCTGTGCCAGACCATT (eA*eG*e[5mC]*e[5mC]*e[5mC]*d[5mC]*dT*dG*dT*dG*d[5mC]*d[5mC]*dA*dG*dA*e[5mC]*e[5mC]*eA*eT*eT; antisense) [ISIS 148953] | 58
14 | AGGGTATTCATGAGAGTGGT (eA*eG*eG*eG*eT*dA*dT*dT*d[5mC]*dA*dT*dG*dA*dG*dA*eG*eT*eG*eG*eT; antisense) [ISIS 149006] | 36
15 | AGGTTCTGTGTTAGCCAGAG (eA*eG*eG*eT*eT*d[5mC]*dT*dG*dT*dG*dT*dT*dA*dG*d[5mC]*e[5mC]*eA*eG*eA*eG; antisense) [ISIS 148989] | 58
16 | ATAGGCCGTGGCGAGGGTTC (eA*eT*eA*eG*eG*d[5mC]*d[5mC]*dG*dT*dG*dG*d[5mC]*dG*dA*dG*eG*eG*eT*eT*e[5mC]; antisense) [ISIS 148972] | 36
17 | ATCTTGGGTGAGTCACTGGT (eA*eT*e[5mC]*eT*eT*dG*dG*dG*dT*dG*dA*dG*dT*d[5mC]*dA*e[5mC]*eT*eG*eG*eT; antisense) [ISIS 148975] | 42
18 | ATGAGAGGTTCCACACAAGT (eA*eT*eG*eA*eG*dA*dG*dG*dT*dT*d[5mC]*d[5mC]*dA*d[5mC]*dA*e[5mC]*eA*eA*eG*eT; antisense) [ISIS 148979] | 54

Row | Sequence | % Inhib [%]
19 | ATGGAGTCTAGAACCAAACG (eA*eT*eG*eG*eA*dG*dT*d[5mC]*dT*dA*dG*dA*dA*d[5mC]*d[5mC]*eA*eA*eA*e[5mC]*eG; antisense) [ISIS 148995] | 56
20 | CACAGAAACGTAAAGGTTCT (e[5mC]*eA*e[5mC]*eA*eG*dA*dA*dA*d[5mC]*dG*dT*dA*dA*dA*dG*eG*eT*eT*e[5mC]*eT; antisense) [ISIS 148991] | 22
21 | CACAGACTCTTGACTGCTCC (e[5mC]*eA*e[5mC]*eA*eG*dA*d[5mC]*dT*d[5mC]*dT*dT*dG*dA*d[5mC]*dT*eG*e[5mC]*eT*e[5mC]*e[5mC]; antisense) [ISIS 148939] | 41
22 | CACGGCTCCCAAAACCAGGA (e[5mC]*eA*e[5mC]*eG*eG*d[5mC]*dT*d[5mC]*d[5mC]*d[5mC]*dA*dA*dA*dA*d[5mC]*e[5mC]*eA*eG*eG*eA; antisense) [ISIS 148977] | 9
23 | CAGAGCGATCTCATCCACCA (e[5mC]*eA*eG*eA*eG*d[5mC]*dG*dA*dT*d[5mC]*dT*d[5mC]*dA*dT*d[5mC]*e[5mC]*eA*e[5mC]*e[5mC]*eA; antisense) [ISIS 148944] | 35
24 | CAGAGGGTCCAGATTTCGGA (e[5mC]*eA*eG*eA*eG*dG*dG*dT*d[5mC]*d[5mC]*dA*dG*dA*dT*dT*eT*e[5mC]*eG*eG*eA; antisense) [ISIS 148959] | −6
25 | CCAAACTGGGATGGCTCAAA (e[5mC]*e[5mC]*eA*eA*eA*d[5mC]*dT*dG*dG*dG*dA*dT*dG*dG*d[5mC]*eT*e[5mC]*eA*eA*eA; antisense) [ISIS 148954] | 48
26 | CCAAACTTCCAGCCAGGTTC (e[5mC]*e[5mC]*eA*eA*eA*d[5mC]*dT*dT*d[5mC]*d[5mC]*dA*dG*d[5mC]*d[5mC]*dA*eG*eG*eT*eT*e[5mC]; antisense) [ISIS 148956] | 27
27 | CCACAGGCCATTAATACTCA (e[5mC]*e[5mC]*eA*e[5mC]*eA*dG*dG*d[5mC]*d[5mC]*dA*dT*dT*dA*dA*dT*eA*e[5mC]*eT*e[5mC]*eA; antisense) [ISIS 148999] | 45
28 | CCAGTGGACAGCACCCAGAG (e[5mC]*e[5mC]*eA*eG*eT*dG*dG*dA*d[5mC]*dA*dG*d[5mC]*dA*d[5mC]*d[5mC]*e[5mC]*eA*eG*eA*eG; antisense) [ISIS 148960] | 28
29 | CCATTAAGAAACCAAGGAGC (e[5mC]*e[5mC]*eA*eT*eT*dA*dA*dG*dA*dA*dA*d[5mC]*d[5mC]*dA*dA*eG*eG*eA*eG*e[5mC]; antisense) [ISIS 148952] | 20
30 | CCGTAGCCTTGGGCTGCCAT (e[5mC]*e[5mC]*eG*eT*eA*dG*d[5mC]*d[5mC]*dT*dT*dG*dG*dG*d[5mC]*dT*eG*e[5mC]*e[5mC]*eA*eT; antisense) [ISIS 148941] | 62
31 | CCGTGTCCTGCCAGTAAGGC (e[5mC]*e[5mC]*eG*eT*eG*dT*d[5mC]*d[5mC]*dT*dG*d[5mC]*d[5mC]*dA*dG*dT*eA*eA*eG*eG*e[5mC]; antisense) [ISIS 148986] | 55
32 | CCTAGGAGAAGAAGAAGGGT (e[5mC]*e[5mC]*eT*eA*eG*dG*dA*dG*dA*dA*dG*dA*dA*dG*dA*eA*eG*eG*eG*eT; antisense) [ISIS 148998] | 21
33 | CGAGGGTTCCCATACAGAGA (e[5mC]*eG*eA*eG*eG*dG*dT*dT*d[5mC]*d[5mC]*d[5mC]*dA*dT*dA*d[5mC]*eA*eG*eA*eG*eA; antisense) [ISIS 148971] | 88
34 | CGCCATGGCCCTGTCTGACA (e[5mC]*eG*e[5mC]*e[5mC]*eA*dT*dG*dG*d[5mC]*d[5mC]*d[5mC]*dT*dG*dT*d[5mC]*eT*eG*eA*e[5mC]*eA; antisense) [ISIS 148969] | 24
35 | CGTCATCATTTTAAATAGAG (e[5mC]*eG*eT*e[5mC]*eA*dT*d[5mC]*dA*dT*dT*dT*dT*dA*dA*dA*eT*eA*eG*eA*eG; antisense) [ISIS 148994] | 10
